Each structure is given as a SMILES string.

Test [1] concerns the target T1, Mcl-1 protein (residues 171-323) (Homo sapiens, UniProt Q07820).
T1 construct: Tag-free Mcl-1 protein (residues 171-323) was used in the FP assay
The experiment in a line: Inhibition of Mcl-1 by fluorescence polarization (FP) competitive binding assay with FAM-Bid tracer. Particulars: 2 nM FAM-Bid, 20 nM Mcl-1, 30 min. In short, it runs like this: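 Ten-point compound titrations compete against 2 nM fluorescein-Bid for 20 nM Mcl-1 (171-323, untagged). Incubation 30 min RT in PBS buffer with BGG and Triton, 5% DMSO final. mP reduction fitted by sigmoidal nonlinear regression for IC50.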

A further test concerns OPM-2 cells. The experiment in a line: Cell viability assay (OPM-2 cells), CCK-8. In kind it is cell-based. Conditions: 5% FBS. In short, it runs like this: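 Viability read by CCK-8 absorbance (450 nm, 4 h reagent incubation) after 24 h compound exposure of 20000 OPM-2 cells per well at 37 °C. IC50 fitted by nonlinear regression on vehicle-normalized signal.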
The subject of a further test is NCI-H929 cells. The experiment in a line: Cell viability assay (NCI-H929 cells), CCK-8. In kind it is cell-based. Particulars: 5% FBS. The method, boiled down: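 Viability of NCI-H929 cells was measured using the Cell Counting Kit-8. After 24 hrs of compound exposure, 10 μL of CCK-8 solution per well was incubated for 1-4 hours, and absorbance was read at 450 nm on a BioTek Synergy 1MF. Readings were normalized to vehicle (DMSO) cells, and IC50 values were derived by nonlinear regression in GraphPad Prism 6.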

T1 sequence (Q07820 171-323): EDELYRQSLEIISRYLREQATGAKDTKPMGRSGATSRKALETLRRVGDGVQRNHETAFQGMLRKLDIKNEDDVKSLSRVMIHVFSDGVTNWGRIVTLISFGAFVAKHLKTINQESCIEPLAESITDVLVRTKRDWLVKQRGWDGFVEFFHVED

As to `CO[C@H]1C2CC(C2)[C@H](C)CS(=O)(=O)NC(=O)c2ccc3c(c2)N(C[C@@H]2CC[C@H]21)C[C@@]1(CCCc2cc(Cl)ccc21)CO3` [compound 3], the IC50 in test [1] is 0.008 µM; in the test on OPM-2 cells (Homo sapiens, OPM-2, 24 h), 5.45 µM; in the test on NCI-H929 cells (Homo sapiens, NCI-H929, 24 h), 3 µM.
As to `CO[C@H]1C2=CC(CCS(=O)(=O)NC(=O)c3ccc4c(c3)N(C[C@@H]3CC[C@H]31)C[C@@]1(CCCc3cc(Cl)ccc31)CO4)C2` (single isomer, unassigned) [Cpd. No. 1 (Isomer 2)], the figures for the IC50 (in test [1]; in the test with OPM-2 cells (24 h); in the test with NCI-H929 cells (24 h)) were 0.0057 µM, 2.43 µM and 1.5 µM, respectively.
For `CO[C@H]1C2=CC(C2)[C@@H](C)[C@H](C)S(=O)(=O)NC(=O)c2ccc3c(c2)N(C[C@@H]2CC[C@H]21)C[C@@]1(CCCc2cc(Cl)ccc21)CO3` (single isomer, unassigned) [12 (Isomer 2)] the same measures were 0.015 µM, 12.3 µM and 4.6 µM.
For the compound `C[C@@H]1[C@@H](C)S(=O)(=O)NC(=O)c2ccc3c(c2)N(C[C@@H]2CC[C@H]2[C@@H](OCC(=O)N(C)C)C2=C[C@H]1C2)C[C@@]1(CCCc2c1ccc(Cl)c2F)CO3` [compound 64, 2-(((1 S, 11′R,12′S,13′R,16′R,16a′R,18a′R,E)-6-chloro-5-fluoro-11′,12′-dimethyl-10′,10′-dioxido-8′-oxo-3,4,8′,9′,12′,13′,16′,16a′,17′,18′,18a′,19′-dodecahydro-1′H,2H,3′H, 11′H-spiro[naphthalene-1,2′-[5,7]etheno[13,15]methanocyclobuta[i][1,4]oxazepino[3,4-f][1]thia[2,7]diazacyclohexadecin]-16′-yl)oxy)-N,N-dimethylacetamide], the IC50 in test [1] turned out to be 0.014 µM; with OPM-2 cells (Homo sapiens, OPM-2, 24 h), 0.12 µM; in the test with NCI-H929 cells (Homo sapiens, NCI-H929, 24 h), 0.0094 µM.
For `C[C@@H]1[C@@H](C)S(=O)(=O)NC(=O)c2ccc3c(c2)N(C[C@@H]2CC[C@H]2[C@@H](OCCN2CCNC(=O)C2)C2=C[C@H]1C2)C[C@@]1(CCCc2c1ccc(Cl)c2F)CO3` [compound 85, (1S,11′R,12′S,13′R,16′R,16a′R,18a′R,E)-6-chloro-5-fluoro-11′,12′-dimethyl-16′-(2-(3-oxopiperazin-1-yl)ethoxy)-3,4,12′,13′,16′,16a′,17′,18′,18a′,19′-decahydro-1′H,2H,3′H, 11′H-spiro[naphthalene-1,2′-[5,7]etheno[13,15]methanocyclobuta[i][1,4]oxazepino[3,4-f][1]thia[2,7]diazacyclohexadecin]-8′(9′H)-one 10′,10′-dioxide], the IC50 in test [1] was 0.02 µM; in the test on OPM-2 cells (Homo sapiens, OPM-2, 24 h), 0.124 µM; in the test with NCI-H929 cells (Homo sapiens, NCI-H929, 24 h), 0.073 µM.
With `CO[C@H]1C2=CC(CCS(=O)(=O)NC(=O)c3ccc4c(c3)N(C[C@@H]3CC[C@H]31)C[C@@]1(CCCc3cc(Cl)ccc31)CO4)C2` (single isomer, unassigned) [Cpd. No. 1 (Isomer 1)], the IC50 in test [1] was 0.0068 µM; with OPM-2 cells (24 h) it was 0.547 µM; in the test on NCI-H929 cells (24 h), 0.36 µM.
`C[C@@H]1[C@@H](C)S(=O)(=O)NC(=O)c2ccc3c(c2)N(C[C@@H]2CC[C@H]2[C@@H](OCCN2CCN(S(C)(=O)=O)CC2)C2=C[C@H]1C2)C[C@@]1(CCCc2c1ccc(Cl)c2F)CO3` [compound 76, (1S,11′R,12′5,13′R,16′R,16a′R,18a′R,E)-6-chloro-5-fluoro-11′,12′-dimethyl-16′-(2-(4-(methylsulfonyl)piperazin-1-yl)ethoxy)-3,4,12′,13′,16′,16a′,17′,18′,18a′,19′-decahydro-1′H,2H,3′H,11′H-spiro[naphthalene-1,2′-[5,7]etheno[13,15]methanocyclobuta[i][1,4]oxazepino[3,4-f][1]thia[2,7]diazacyclohexadecin]-8′(9′H)-one 10′,10′-dioxide]: the IC50 in test [1] worked out at 0.021 µM; in the test with OPM-2 cells (Homo sapiens, OPM-2, 24 h) it was 0.206 µM; in the test with NCI-H929 cells (Homo sapiens, NCI-H929, 24 h), 0.037 µM.
Regarding `CO[C@@H]1C2=CC(C2)CC(C)S(=O)(=O)NC(=O)c2ccc3c(c2)N(C[C@@H]2CC[C@H]21)C[C@@]1(CCCc2cc(Cl)ccc21)CO3` (single isomer, unassigned) [7 (Isomer 1)], the IC50 in test [1] came out at 0.0042 µM; in the test with OPM-2 cells (24 h), 1.12 µM; with NCI-H929 cells (24 h), 0.6 µM.
As for `CO[C@H]1C2=C[C@@H](C2)[C@H](C)N(C[C@@H]2CCCO2)S(=O)(=O)NC(=O)c2ccc3c(c2)N(C[C@@H]2CC[C@H]21)C[C@@]1(CCCc2cc(Cl)ccc21)CO3` (single isomer, unassigned) [30 (isomer 3)], the IC50 in test [1] worked out at 0.014 µM; in the test on OPM-2 cells (Homo sapiens, OPM-2, 24 h), 6.1 µM; in the test with NCI-H929 cells (Homo sapiens, NCI-H929, 24 h), 5.2 µM.
On to `CCO[C@@]1(C(=O)N2CCN3CCOC[C@@H]3C2)C2=C[C@@H](C2)[C@H](C)[C@@H](C)S(=O)(=O)NC(=O)c2ccc3c(c2)N(C[C@@H]2CC[C@H]21)C[C@@]1(CCCc2c1ccc(Cl)c2F)CO3` [compound 46, (1S,11′R,12′S,13′R,16′R,16a′R,18a′R,E)-6-chloro-16′-ethoxy-5-fluoro-11′,12′-dimethyl-16′-((S)-octahydropyrazino[2,1-c][1,4]oxazine-8-carbonyl)-3,4,12′,13′,16′,16a′,17′,18′,18a′,19′-decahydro-1′H,2H,3′H,11′H-spiro[naphthalene-1,2′-[5,7]etheno[13,15]methanocyclobuta[i][1,4]oxazepino[3,4-f][1]thia[2,7]diazacyclohexadecin]-8′(9′H)-one 10′,10′-dioxide], for which the IC50 in test [1] came out at 0.013 µM; in the test on OPM-2 cells (Homo sapiens, OPM-2, 24 h) it was 0.325 µM; with NCI-H929 cells (Homo sapiens, NCI-H929, 24 h) it was 0.2 µM.
Turning to `CC[C@@H]1CS(=O)(=O)NC(=O)c2ccc3c(c2)N(C[C@@H]2CC[C@H]2[C@@H](OC)C2=CC1C2)C[C@@]1(CCCc2cc(Cl)ccc21)CO3` (single isomer, unassigned) [Cpd. No. 10 (Isomer 1)], the IC50 worked out at 0.0049 µM in test [1], 2.5 µM in the test on OPM-2 cells (24 h) and 1.7 µM in the test on NCI-H929 cells (24 h).
For the compound `C[C@@H]1[C@@H](C)S(=O)(=O)NC(=O)c2ccc3c(c2)N(C[C@@H]2CC[C@H]2[C@@H](N2CCOCC2)C2=C[C@H]1C2)C[C@@]1(CCCc2c1ccc(Cl)c2F)CO3` (single isomer, unassigned) [compound 56], the IC50 in test [1] turned out to be 0.0077 µM; in the test on OPM-2 cells (Homo sapiens, OPM-2, 24 h), 0.065 µM; in the test with NCI-H929 cells (Homo sapiens, NCI-H929, 24 h) it was 0.049 µM.
Take `CO[C@H]1C2=CC3(C2)CN(C3)S(=O)(=O)NC(=O)c2ccc3c(c2)N(C[C@@H]2CC[C@H]21)C[C@@]1(CCCc2cc(Cl)ccc21)CO3` [compound 31, (1S,16′R,16a′R,18a′R)-6-chloro-16′-methoxy-3,4,16′,16a′,17′,18′,18a′,19′-octahydro-1′H,2H,3′H,12′H-spiro[naphthalene-1,2′-[5,7]etheno[11,13:13,15]dimethanocyclobuta[i][1,4]oxazepino[3,4-f][1]thia[2,7,16]triazacyclohexadecin]-8′(9′H)-one 10′,10′-dioxide]: the IC50 in test [1] came to 0.011 µM; in the test on OPM-2 cells (Homo sapiens, OPM-2, 24 h) it was 9.28 µM; with NCI-H929 cells (Homo sapiens, NCI-H929, 24 h), 9.7 µM.
Take `CO[C@H]1C2=CC(C)(C2)[C@H](C)CS(=O)(=O)NC(=O)c2ccc3c(c2)N(C[C@@H]2CC[C@H]21)C[C@@]1(CCCc2cc(Cl)ccc21)CO3` (single isomer, unassigned) [Cpd. No. 18 (Isomer 2)]: the values for the IC50 (in test [1]; in the test with OPM-2 cells (24 h); with NCI-H929 cells (24 h)) were 0.0049 µM, 1.21 µM and 0.44 µM, respectively.

These data come from patent publication US11498928B2, “Macrocyclic spiroethers as Mcl-1 inhibitors” (ASCENTAGE PHARMA (SUZHOU) CO., LTD., priority 2019, dated 2022).
